Data on seven molecules can be found in US9333222B2, “Histone deacetylase inhibitors as therapeutic agents for Niemann-Pick type C disease” (University of Notre Dame du Lac, priority 2009, dated 2016).

A word on the EC50: it is the concentration at which the effect is half-maximal. As usually defined, the Ki is a dissociation constant, usually derived from enzyme kinetics or from competition with a known ligand.

Like-named read-outs stand apart in the source and are kept apart here.

Test [1] relates to NPC1 human fibroblast GM03123 cells. The test can be described thus: Filipin microscopy assay of free cholesterol in lysosomal storage organelles (LSO ratio). The format is cell-based. The conditions noted are these: for EC50: read-out: EC50 for correcting the NPC1 phenotype; for effect on NPC1 phenotype: after 4 hours.
Description: Images were acquired with wide-field microscopy at 10× magnification. […] The effect of each HDACi on NPC1 human fibroblasts was then determined at varying concentrations and times. […] Briefly, NPC1 human fibroblast GM03123 cells were seeded in five 384-well plates in growth medium. […] HDACi were allowed to remain in the culture medium for 72, 48, 24, 4, and 0 hours of treatment. For the control, cells were treated with a corresponding concentration of dimethyl sulfoxide (DMSO). HDACi were added to five wells for each concentration. […] Images were analyzed to obtain an LSO ratio and data were normalized to corresponding DMSO-treated cells.
For test [2], the system named is NPC1 human fibroblast GM18453 cells. The test can be described thus: Filipin microscopy assay of free cholesterol in LSO (LSO ratio). The format is cell-based.
Description: Next, the effect of HDACi on NPC1I1061T homozygous NPC1 human fibroblasts (GM18453) and on NPC2 human fibroblasts (GM18445) was evaluated. Briefly, NPC1 human fibroblast GM18453 cells and NPC2 human fibroblast GM18455 cells were seeded in five 384-well plates in growth medium. […] Cells were incubated at 37° C. in the presence of 5% CO2 atmosphere for 48 hours. […] Images were analyzed to obtain an LSO ratio and data were normalized to corresponding DMSO-treated cells. […] The dotted horizontal lines indicate mean values for the solvent control, and error bars represent the standard error.
Briefly, NPC1 human fibroblast GM18453 cells and NPC2 human fibroblast GM18455 cells were seeded in five 384-well plates in growth medium. […] Cells were incubated at 37° C. in the presence of 5% CO2 atmosphere for 48 hours. […] Images were analyzed to obtain an LSO ratio, and data were normalized to corresponding DMSO-treated cells. […] The dotted horizontal lines indicate mean values for the solvent control, and the error bars represent the standard error.
A further test deals with HDAC2 (Homo sapiens, UniProt Q92769). Particulars: read-out: Inhibition constant Ki HDAC2; cited from earlier work.
Chain of HDAC2 (Q92769 whole entry, species assumed): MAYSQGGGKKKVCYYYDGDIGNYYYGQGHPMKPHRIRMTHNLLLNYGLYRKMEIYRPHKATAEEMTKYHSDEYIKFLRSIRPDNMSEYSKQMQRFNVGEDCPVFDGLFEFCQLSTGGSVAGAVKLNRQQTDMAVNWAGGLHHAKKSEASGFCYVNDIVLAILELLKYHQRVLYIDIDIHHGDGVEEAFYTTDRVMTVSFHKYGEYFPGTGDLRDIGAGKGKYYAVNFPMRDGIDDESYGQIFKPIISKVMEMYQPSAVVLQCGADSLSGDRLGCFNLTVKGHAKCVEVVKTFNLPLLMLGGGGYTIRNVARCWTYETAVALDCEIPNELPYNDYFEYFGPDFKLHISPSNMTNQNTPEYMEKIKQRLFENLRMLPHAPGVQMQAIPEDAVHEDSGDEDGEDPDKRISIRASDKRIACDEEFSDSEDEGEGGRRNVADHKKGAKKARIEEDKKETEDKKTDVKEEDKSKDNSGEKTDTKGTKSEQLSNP
The mark [3] stands for this setting: Homo sapiens, Fibroblast, after 48 hours.

As for `CCCCOc1ccc(CC(=O)NO)cc1` [Bufexamac], in test [1] (various concentrations (0.04-10 μM) and times (4-72 hours), GM03123), the “correction of the NPC1 phenotype” value is reported as “no correction of the NPC1 phenotype”. As to `CC(=O)Nc1ccc(C(=O)Nc2ccccc2N)cc1` [CL-994], the EC50 in test [1] (setting [3]) was about 1000 nM. Also, the “effect on NPC1 phenotype” value in test [1] (GM03123) is “no effect”.

`Cc1[nH]c2ccccc2c1CCNCc1ccc(/C=C/C(=O)NO)cc1` [LBH-589, panobinostat]: in test [1] (Homo sapiens, Fibroblast, 48 h), the EC50 is under 4 nM. Moreover, in test [2] (48-hour treatment, GM18453), the “concentration of highest efficacy in correcting the NPC1 phenotype” value worked out at 37 nM. In the case of `COc1ccc(Cn2ccc3ccc(C(=O)NO)cc32)cc1` [PCI-34051], the “correction of the NPC1 phenotype” value in test [2] (40 nM to 10 μM, 48 hours, NPC1 human fibroblasts (FIG. 6)) is recorded as “no correction of the NPC1 phenotype”. For the molecule `O=C(CCCCCCC(=O)Nc1cccnc1)NO` [Pyroxamide], at HDAC2, the Ki was 3.6 nM. Also, the concentration giving a half-maximal response (EC50) in test [1] (setting [3]) was about 1000 nM. For `O=C(CCCCCCC(=O)Nc1ccccc1)NO` [SAHA, vorinostat], the “effect on NPC1 phenotype” value in test [1] (GM03123) is “no effect”.

As to `CC(/C=C/C(=O)NO)=C\[C@@H](C)C(=O)c1ccc(N(C)C)cc1` [TSA, trichostatin A], in test [1] (after 48 hours), the EC50 was about 20 nM.
